Results published in publication PMC11302733, “Bioactivity of synthetic peptides from Ecuadorian frog skin secretions against Leishmania mexicana, Plasmodium falciparum, and Trypanosoma cruzi” (Microbiology Spectrum, 2024).
Like-named read-outs stand apart in the source and are kept apart here. No end group written: not given here.

Experiments:
[1] = Cytotoxicity, resazurin reduction assay; assay type: cell-based; conditions: Macaca mulatta, LLC-MK2 cells (Macaca mulatta kidney cells), 100.0–0.195 µM, three independent assays in duplicate wells, read-out: IC50 (CC50) Llc-mk2, with 95% confidence interval
Protocol: (§1) RAW 264.7 murine macrophages and Macaca mulatta kidney cells (LLC-MK2) were cultured in 75-cm^2 flasks with 10-mL Dulbecco’s Modified Eagle’s Medium (DMEM) supplemented with 10% fetal bovine serum and 1% penicillin/streptomycin (DMEM-10) medium. Culture conditions were 37°C, 5% CO2, and 95% relative humidity. RAW 264.7 cells were rinsed with PBS, detached with a cell scraper, and passaged every 96 h. LL-MCK2 were subcultured weekly, at 1:4 ratio, via trypsinization.
(§2) The toxicity of the studied AMPs over LLC-MK2 and RAW 264 cells was determined via a resazurin (RZN) reduction assay ([42]). Briefly, 2 × 10^4 cells/well were seeded in DMEM-10 in 96-well plates. Twenty-four hours later, culture medium was removed, and 10 twofold serial dilutions (100.0–0.195 µM) of each AMP in 200-µL volume were placed in duplicate wells. The plate was placed on the incubator in the dark at 37°C and 5% CO2. Ten microliters of 3-mM RZN sodium salt in PBS per well was added, and the plate was incubated for 24 h. Finally, the fluorescence was measured (530- to 560-nm excitation and 590-nm emission wavelengths). Three independent assays were performed for each peptide.

[2] = Cytotoxicity, resazurin reduction assay; assay type: cell-based, murine; conditions: mouse
Protocol: as §1, §2

[3] = tested on: T. cruzi trypomastigotes (Tulahuen, Tula β-gal); assay type: cell-based, Trypanosoma cruzi; conditions: trypomastigotes (Tulahuen, Tula β-gal, 4 h)
Protocol: T. cruzi trypomastigote culture was performed as reported previously ([35], [36]). LLC-MK2 cell monolayers were infected with 5 × 10^5 trypomastigotes in 10-mL DMEM supplemented with 2% FBS and 1% penicillin/streptomycin (DMEM-2), for 48 h at 37°C, 5% CO2 and 98% relative humidity. Parasites were subsequently removed by rinsing with PBS, and 10-mL fresh DMEM-2 was added. Five days post-infection, trypomastigotes were harvested from the culture for the trypanocidal activity assays.
Wells containing parasites not exposed to peptides and treated with 0.1% Triton served as 100% lysis reference. Plates were incubated in the dark at 37°C and 5% CO2 for 4 h, and absorbance was read at 590 nm. Experiments were performed in duplicate wells. Three independent assays were performed for each peptide.

[4] = tested on: intracellular T. cruzi amastigotes (Tula β-gal) in LLC-MK2 cells; conditions: read-out: IC50 T. cruzi amastigotes, with 95% confidence interval, 96 h, CPRG read-out, three independent assays
Protocol: Leishmania mexicana strain M379, P. falciparum reference clones NF54 (chloroquine-sensitive, isolated from a patient at an airport in the Netherlands) and TM90C2B (C2B) (chloroquine, mefloquine, and atovaquone resistant, from Thailand) and T. cruzi, β-galactosidase-expressing, Tulahuen strain parasites (C4 clone; +lacZ, henceforth abbreviated as Tula β-gal) ([33]) were employed in the study.
LLC-MK2 cells, 2 × 10^4/well, were seeded and allowed to attach overnight to 96-well plates. he medium was removed and cells were infected with 1 × 10^5 parasites in DMEM-2 for 24 h. Cell monolayers were washed four times with PBS, and serial dilutions of AMPs (100.0- to 0.195-µM range) in DMEM-2 without phenol red were added to duplicate wells. Wells containing infected cells not exposed to peptides served as parasite growth reference. The infection was allowed to proceed for 96 h. Subsequently, lysis solution was added to each well to a final concentration of 100-µM CPRG and 0.1% Triton and incubated for 2 h. Absorbance was measured at 590 nm ([41]). Three independent assays were performed for each peptide.
Half-maximal inhibitory concentration (IC50) and half-maximal cytotoxic concentration (CC50) with 95% confidence intervals in GraphPad Prism software (v.9.2.0., non-linear regression with curve fitting [model: log (inhibitor) vs response (three parameters)]. The selectivity index (SI) was determined by dividing the CC50 value of RAW 264.7 cells by the IC50 of the parasites.

P. falciparum NF54 = assay type: cell-based, Plasmodium falciparum; conditions: NF54, 72 h
Protocol: (§3) P. falciparum was cultured in human O + erythrocytes in Roswell Park Memorial Institute medium 1640, supplemented with 25-mM HEPES buffer, 10-mM glucose, 2-mM glutamine, and O + human plasma. Parasites were cultured under low-oxygen atmosphere (5% O2, 5% CO2, and 90% N2) ([34]) and maintained in fresh human erythrocytes suspended at 4% hematocrit in complete medium at 37°C. Stock cultures were subpassaged every 3–4 days by transfer of infected red cells to a flask containing complete medium and uninfected erythrocytes.
(§4) In vitro sensitivity to peptides was tested using a previously described SYBR green I fluorescence-based method ([39], [40]). Assays were set up in 96-well plates with twofold peptide dilutions in 150-μL total volume and 1.5% (vol/vol) final red blood cell concentration. Stock solutions of each peptide were prepared in DMSO. Experiments were started at an initial parasitemia of 0.5% (80% rings) synchronous parasite-infected red blood cells. Plates were incubated for 72 h at 37°C in an atmosphere of 5% CO2, 5% O2, and 90% N2. The SYBR green I dye-lysis mixture (l:100) was added to the parasites in black plates that were incubated at room temperature for an hour in the dark. The plates were then read using a fluorescence plate reader at excitation and emission wavelengths of 480 and 535 nm, respectively. Experiments were performed in duplicate wells. Three independent assays were performed for each peptide.

[5] = tested on: P. falciparum TM90C2B (C2B); assay type: cell-based, Plasmodium falciparum; conditions: TM90C2B (C2B, 72 h)
Protocol: as §3, §4

[6] = tested on: Candida albicans ATCC 10231; assay type: cell-based; conditions: ATCC 10231, 16 h
Protocol: (§5) The minimum inhibitory concentration (MIC) of CZS-4 over Escherichia coli American Type Culture Collection (ATCC) 25922, Staphylococcus aureus ATCC 29213, and Candida albicans ATCC 10231 was determined, as previously described ([28], [30], [31]). In brief, overnight cultures of each microorganism were subcultured in Muller-Hinton Broth (MHB) until reaching 1 × 10^6 CFU/mL for bacteria and 1 × 10^5 CFU/mL for yeast. Peptide serial dilutions in dimethylsulfoxide (DMSO), ranging from 0.4 to 209.4 µM were prepared, and 2 µL of each peptide dilution was added to 198-µL diluted bacterial or yeast culture in a 96-well sterile plate (with five replicates). Sterile MHB and microbial culture with DMSO were negative controls. Plates were incubated for 16 h at 37°C. Microorganism growth was measured at 600 nm.

[7] = tested on: Escherichia coli ATCC 25922; assay type: cell-based; conditions: ATCC 25922, 16 h
Protocol: as §5

[8] = tested on: Staphylococcus aureus ATCC 29213; assay type: cell-based; conditions: ATCC 29213, 16 h
Protocol: as §5

red blood cell = assay type: cell-based
Protocol: Hemolytic activity was determined using 200 µL of 4% red blood cell solution incubated with 200 µL of serial dilutions peptide (0.4–209.4 µM) in phosphate-buffered saline (PBS) 1× (five replicates). Negative controls contained PBS instead of peptide; positive controls contained 2% vol/vol Triton X-100 to yield complete hemolysis. Assays were incubated at 37°C for 2 h, and samples were centrifuged at […] for 5 min. Two-hundred microliters of supernatant was transferred to a 96-well plate and absorbance was measured at 550 nm.

[9] = tested on: Leishmania mexicana strain M379 promastigotes; assay type: cell-based; conditions: for SI L. mexicana: RAW 264.7 CC50/parasite IC50; for IC50: promastigotes 1 × 10^6/well, SDM without FBS, 48 h at 25°C, MTT, three independent assays in triplicate, read-out: IC50 L. mexicana, with 95% confidence interval
Protocol: L. mexicana promastigote stock cultures were maintained in USHMARU biphasic medium [blood agar slant overlayed with 3 mL of Schneider’s Drosophila medium (SDM), containing 10% fetal bovine serum (FBS)] at 25°C. Promastigotes were collected by centrifugation and washed with PBS, and culture medium was replaced every 2 days. Every 4 days, the parasites were transferred to a new tube and to a 25-cm^2 tissue culture flask containing 10 mL of monophasic medium (SDM + 10% FBS + 1% penicillin/streptomycin). If present, rosettes were disrupted by passing the culture through 10-mL syringes with 27G needles.
Parasite viability was measured colorimetrically via 3-(4,5-dimethylthiazol-2-yl)-2,5-diphenyltetrazole bromide tetrazolium salt (MTT) reduction. Promastigotes were placed in 96-well conical-bottom plates in SDM + 1% penicillin/streptomycin without FBS, at a density of 1 × 10^6/well. Untreated parasites (growth control), 1-µM amphotericin B diluted in DMSO (positive control), 0.25% DMSO (negative control), and each of the peptides at a final concentration of 0.1, 0.5, 1.0, 5.0, and 10.0 µM were included in triplicate wells. Plates were incubated at 25°C for 48 h. Subsequently, 20-µL 10% MTT was added per well. Plates were incubated for 2 h in the dark at the same temperature and centrifuged at 4,000 rpm for 10 min, and the supernatant was removed. Formazan crystals were diluted with 50-µL DMSO, and absorbances (A570–630) were read ([37], [38]). Three independent assays were performed for each peptide.

[10] = RAW 264.7 macrophages, resazurin reduction, 24 h, 100.0–0.195 µM, three independent assays in duplicate wells, read-out: IC50 (CC50) Raw 264.7, with 95% confidence interval

Substance	CC50 at 24 h [1] [µM]	CC50 at 24 h [2, 10] [µM]	IC50 [3] [µM]	IC50 [4] [µM]	IC50 (P. falciparum NF54) [µM]	IC50 [5] [µM]	MIC [6] [µM]	MIC [7] [µM]	MIC [8] [µM]	Hemolysis (red blood cell; 128 µM) [%]	Hemolysis (red blood cell; 2 h)	Hemolysis (%) (red blood cell; 2 h, 13.09 µM)	Hemolysis (%) (red blood cell; 2 h, 26.18 µM)	Hemolysis (%) (red blood cell; 2 h, 104.73 µM)	Hemolysis (%) (red blood cell; 2 h, 209.46 µM)	SI L. mexicana [9]	IC50 [9] [µM]	CC50 at 24 h [2] [µM]
GFLDVLKGVGKAALGAVTHLINQ-NH2 [CZS-16]	5.59	4.4	18.7	38.3	36.8	34.4	–	–	–	–	–	–	–	–	–	–	–	–
GFLDVIKHVGKAALSVVSHLINE-NH2 [CZS-4]	70.7	48	1.55	30.7	13.9	4.87	52.36	13.09	26.18	13	less than 9.1%	1.2	9.1	28.5	36.3	532.89	0.09	–
ASWKVFLKNIGKAAGKAVLNSVTDMVNQ-NH2 [DRS-SP2]	–	–	–	–	12.1	15.3	–	–	–	–	–	–	–	–	–	5.15	0.61	3.14
GFLDTLKNIGKTVGRIALNVLT-NH2 [PTS-1]	80.1	2.52	1.42	30.2	52.6	24.9	–	–	–	–	–	–	–	–	–	25.20	0.1	–
GFLDIVKGVGKVALGAVSKLF-NH2 [CZS-1]	3.17	2.38	2.87	16.7	31.2	16.8	–	–	–	–	–	–	–	–	–	4.41	0.54	–
